Measurements from US20220401429A1, “USE OF ANAMORELIN TO TREAT CANCER-RELATED FATIGUE” (Helsinn Healthcare SA, priority 2021, published 2022).
Where two headings read alike, the source gives them in different places.

What was measured:
[1] = tested on: patients with advanced cancer; assay: Multidimensional Fatigue Symptom Inventory-Short Form (MFSI-SF), Example 1 study; type: in vivo, human; conditions: Day 86 (N = 8), change from baseline, 100 mg oral daily + physical activity + nutritional counseling
Method: (§1) In this single arm study, 38 patients were intended for treatment with anamorelin for 6 weeks with an optional extension phase of 6 more weeks based on tolerability and safety and patient willingness. Patients received anamorelin 100 mg tablets and physical activity for 6 weeks for the intervention phase. Patients took 1 tablet orally while fasting (at least 1 hour before a meal).
(§2) Secondary objectives of the study were to examine the effects of anamorelin and standardized physical activity and nutritional counseling on Health-related quality of life and patient reported outcomes as measured by The Multidimensional Fatigue Symptom Inventory-Short Form[MFSI-SF], PROMIS-Fatigue, Hospital Anxiety Depression Scale (HADS), Edmonton Symptom Assessment Scale (ESAS), Functional Assessment of Cancer Therapy (FACT-G), and its Functional Assessment of Anorexia/Cachexia Treatment (FAACT) subscale in these patients.
MFSI-SF consists of 30 items designed to assess the multidimensional nature of fatigue(Stein, Jacobsen et al. 2004). Ratings are summed to obtain scores for 5 subscales (general fatigue, physical fatigue, emotional fatigue, mental fatigue, and vigor).

[2] = tested on: patients with advanced cancer; assay: PROMIS-Fatigue, Example 1 study; type: in vivo, human; conditions: change from baseline, 100 mg oral daily + physical activity + nutritional counseling
Method: as §1, §2
PROMIS measures key symptoms and health concepts applicable to advanced cancer, enabling efficient and interpretable clinical trial research and clinical practice application of patient-reported outcomes (PROs) (Rothrock, Hays et al. 2010, Yost, Eton et al. 2011).

[3] = tested on: patients with advanced cancer; assay: FACT-G, Example 1 study; type: in vivo, human; conditions: change from baseline, 100 mg oral daily + physical activity + nutritional counseling
Method: as §1, §2
The FACT-G is a 27-item compilation of general questions divided into four primary domains: Physical Well-Being, Social/Family Well-Being, Emotional Well-Being, and Functional Well-Being. It is appropriate for use in patients with any form of cancer, and extensions of it have been used and validated in other chronic illness conditions as well (Cella, Tulsky et al. 1993, Webster, Cella et al. 2003). The FACT-G is the first 2 pages of FACIT-F.

[4] = tested on: patients with advanced cancer; assay: FAACT Anorexia/Cachexia subscale, Example 1 study; type: in vivo, human; conditions: change from baseline, 100 mg oral daily + physical activity + nutritional counseling
Method: as §1, §2
The FAACT-Anorexia/Cachexia subscale is a 12-item symptom-specific subscale designed to measure patients' additional concerns about their anorexia/cachexia during the previous 7 days. The FAACT has internal consistency and a reliability coefficient (Cronbach's alpha) of 0.88 for the 12 components (Ribaudo, Cella et al. 2000). Patients rate the intensity of anorexia/cachexia and its related symptoms on a 0-4 scale like that used in the FACIT-F.

[5] = tested on: patients with advanced cancer; assay: Pittsburgh Sleep Quality Index (PSQI), Example 1 study; type: in vivo, human; conditions: 100 mg oral daily + physical activity + nutritional counseling
Method: as §1

[6] = tested on: patients with advanced cancer; assay: Godin Leisure-Time physical activity questionnaire, Example 1 study; type: in vivo, human; conditions: Day 86 (N = 8), change from baseline, 100 mg oral daily + physical activity + nutritional counseling
Method: as §1
(§3) Measures: We used the 30 second chair stand test, six-minute walk test, and an accelerometer. A self-report exercise questionnaire, the Godin Leisure-Time physical activity questionnaire, was used to complement the objective measures. IM Systems-three dimensional accelerometers (“Biotrainer-Pro”) was used to objectively measure physical activity.
(§4) Physical Performance Tests: The 30 second chair stand test, 6-minute walk test, and Godin Leisure-Time physical activity questionnaire were administered at baseline and on Day 43. The 30 second sit-to-stand task assessed lower body strength (Rikli and Jones 1999).
The Godin Leisure-Time physical activity questionnaire asks participants how many times per week on average they participate in strenuous, moderate and mild exercises for more than 15 minutes during their free time. […]

[7] = tested on: patients with advanced cancer; assay: Global Symptom Evaluation, Example 1 study; type: in vivo, human; conditions: time point not clearly stated; 100 mg oral daily + physical activity + nutritional counseling
Method: as §1

[8] = Weight and body composition (InBody), Example 1 study; type: in vivo, human; conditions: Day 43, 28 evaluable patients, 100 mg oral daily + physical activity + nutritional counseling
Method: as §1
(§5) Exploratory objectives of the study were to explore the effects of anamorelin and standardized physical activity and nutritional counseling on muscle function (as measured by the 30 second chair stand test, 6 minute walk test, day time activity (accelerometer), body composition (as measured by INBODY), and Resting Energy Expenditure (measured by indirect calorimetry)
Body Composition: All patients were assessed for lean body mass, skeletal muscle mass, extracellular water/total body water body, fat mass, body fat mass, and whole body phase angle evaluation (using the InBody body composition scale) (Dalal, Hui et al. 2012, Del Fabbro, Parsons et al. 2012, Yennurajalingam, Willey et al. 2012, Hui, Bansal et al. 2014). Resting energy expenditure was assessed at baseline and Day 43±3 days, and at the end of 6 weeks of the extension phase.

[9] = tested on: IGF-1; assay: IGF-1 level, Example 1 study; type: in vivo, human; conditions: Day 43, 28 evaluable patients, 100 mg oral daily + physical activity + nutritional counseling
Method: as §1

[10] = tested on: patients with advanced cancer; assay: Physical performance tests (30 second chair stand test, 6-minute walk test), Example 1 study; type: in vivo, human; conditions: Day 43 vs baseline, 100 mg oral daily + physical activity + nutritional counseling
Method: as §1, §5
Measures: We used the 30 second chair stand test, six-minute walk test, and an accelerometer. A self-report exercise questionnaire, the Godin Leisure-Time physical activity questionnaire, was used to complement the objective measures. […]
as §4
In the six-minute walk test, participants were asked to walk as fast and as far as they can for six minutes, and the distance walked was measured. […]

[11] = tested on: patients with advanced cancer; assay: Daytime activity by accelerometer (actigraphy), Example 1 study; type: in vivo, human; conditions: 100 mg oral daily + physical activity + nutritional counseling
Method: as §1, §5, §3

[12] = tested on: patients with advanced cancer; assay: Adverse events, Example 1 study; type: in vivo, human; conditions: 100 mg oral daily, 6 weeks with optional 6 week extension
Method: as §1

[13] = tested on: cachectic patients with non-small cell lung cancer; conditions: cited from earlier work
[14] = tested on: Patients With Non—Small Cell Lung Cancer and Cachexia; conditions: study by Katakami and Uchino et al. 2018; cited from earlier work
[15] = ROMANA 1 and ROMANA 2, both studies

CN(C)N(C)C(=O)[C@@]1(Cc2ccccc2)CCCN(C(=O)[C@@H](Cc2c[nH]c3ccccc23)NC(=O)C(C)(C)N)C1 [anamorelin]
MFSI-SF Mental fatigue, change, Mean (±SD) [1]: −2.25 (±3.62), | MFSI-SF Physical fatigue, change, Mean (±SD) [1]: −1.88 (±3.98), | MFSI-SF Total, change, Mean (±SD) [1]: −11.75 (±14.22), | MFSI-SF Vigor, change, Mean (±SD) [1]: 2.75 (±3.01), | PROMIS-Fatigue, change, Mean (±SD) ([2]; Day 15 (N = 28)): −2.74 (±6.12), | PROMIS-Fatigue, change, Mean (±SD) ([2]; Day 29 (N = 28)): −3.64 (±8.22), | PROMIS-Fatigue, change, Mean (±SD) ([2]; Day 86 (N = 8)): −6.36 (±6.32), | FACT-G Total, change, Mean (±SD) ([3]; Day 15 (N = 28)): 0.59 (±9.17), | FACT-G Total, change, Mean (±SD) ([3]; Day 29 (N = 28)): 1.31 (±8.97), | FACT-G Total, change, Mean (±SD) ([3]; Day 43 (N = 28)): −1.10 (±10.71), | FACT-G Total, change, Mean (±SD) ([3]; Day 86 (N = 8)): 4.54 (±7.65), | FAACT-A/CS Total, change, Mean (±SD) ([4]; Day 15 (N = 28)): 1.70 (±4.89), | FAACT-A/CS Total, change, Mean (±SD) ([4]; Day 29 (N = 28)): 4.53 (±5.54), | FAACT-A/CS Total, change, Mean (±SD) ([4]; Day 86 (N = 8)): −5.86 (±3.72), | PSQI (N = 15), change, Mean (±SD) ([5]; Day 29, change from baseline): −0.09 (±4.18), | PSQI (N = 15), change, Mean (±SD) ([5]; Day 43, change from baseline): −0.09 (±2.12), | PSQI (N = 15), change, Mean (±SD) ([5]; Day 86, change from baseline): −0.50 (±2.95), | Godin Leisure Test Total, change, Mean (±SD) [6]: −0.67 (±6.35), | Global Symptom Evaluation: About the same N (%) [7]: 9 (36%) | Global Symptom Evaluation: Better N (%) [7]: 13 (52%) | Global Symptom Evaluation: Worse N (%) [7]: 3 (12%) | Lean Body Mass improvement from baseline, mean (SD) [8]: 1.54 (±1.85) | Weight improvement from baseline, mean (SD) [8]: 1.81 (±2.63) kg | IGF-1 change from baseline, mean (SD) [9]: 36.50 (±48.76) | Improvement in the physical performance outcomes [10]: no significant improvement | Improvement in mean daytime activity (actigraphy activity measure) [11]: no significant improvement | Severe (≥grade 3) adverse events related to the study drug [12]: No severe (≥grade 3) adverse events | Effect size for improvement in CRF ([13]; ROMANA 1): 0.16 | Effect on fatigue using the FACIT-F [13, 15]: unable to detect a significant effect | Effect on strength measured by handgrip strength [13, 15]: unable to detect a significant effect | Effect size for improvement in CRF ([13]; ROMANA 2): 0.008 | Treat fatigue and improve handgrip strength, pooled post-hoc analysis ([13]; higher BMIs): ineffective | Treat fatigue and improve handgrip strength, pooled post-hoc analysis ([13]; patients with BMI less than 20 kg/m^2): effective | Effect size for improvement in CRF [14]: 0.057
